Results as given in EP4722212A1, “NOVEL COMPOUND FOR INHIBITING PROTEIN KINASES AND PHARMACEUTICAL COMPOSITION COMPRISING SAME” (Magicbullettherapeutics Co., Ltd., priority 2023, dated 2024).

Key:
ACK1 = target: T1, ACK1 (Homo sapiens, UniProt Q07912); experiment: Enzyme activity inhibition (Reaction Biology); format: biochemical
T1 construct: purchased Reaction Biology (RBC)
Experimental: (§1) [* <10 nM: A, <100 nM: B, >100 nM: C]. [Table 7]

BMX = target: T2, BMX (Homo sapiens, UniProt P51813); experiment: Enzyme activity inhibition (Reaction Biology); format: biochemical
T2 construct: purchased Reaction Biology (RBC)
T2 sequence (P51813 1-675): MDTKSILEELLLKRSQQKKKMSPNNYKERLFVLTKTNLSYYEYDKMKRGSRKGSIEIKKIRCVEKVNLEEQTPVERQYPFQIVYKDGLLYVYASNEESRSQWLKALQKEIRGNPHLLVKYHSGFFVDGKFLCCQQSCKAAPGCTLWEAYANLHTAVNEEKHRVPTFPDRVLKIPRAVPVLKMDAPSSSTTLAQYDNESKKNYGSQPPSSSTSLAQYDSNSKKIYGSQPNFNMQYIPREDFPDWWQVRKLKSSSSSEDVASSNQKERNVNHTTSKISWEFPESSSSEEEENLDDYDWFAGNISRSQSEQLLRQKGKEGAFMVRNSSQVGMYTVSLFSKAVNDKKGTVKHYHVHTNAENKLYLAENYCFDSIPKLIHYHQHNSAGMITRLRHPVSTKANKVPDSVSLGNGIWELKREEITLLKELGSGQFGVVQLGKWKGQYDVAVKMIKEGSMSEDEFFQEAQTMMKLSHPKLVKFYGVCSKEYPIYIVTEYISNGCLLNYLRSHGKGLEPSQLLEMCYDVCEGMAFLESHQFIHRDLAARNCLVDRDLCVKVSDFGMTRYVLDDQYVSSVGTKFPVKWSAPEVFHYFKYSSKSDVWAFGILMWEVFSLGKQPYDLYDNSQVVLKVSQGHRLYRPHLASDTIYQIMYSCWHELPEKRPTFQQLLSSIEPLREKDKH
Experimental: as §1

Src = target: T3, Src (Homo sapiens, UniProt P12931); experiment: Enzyme activity inhibition (Reaction Biology); format: biochemical
T3 construct: purchased Reaction Biology (RBC)
T3 sequence (P12931 whole entry): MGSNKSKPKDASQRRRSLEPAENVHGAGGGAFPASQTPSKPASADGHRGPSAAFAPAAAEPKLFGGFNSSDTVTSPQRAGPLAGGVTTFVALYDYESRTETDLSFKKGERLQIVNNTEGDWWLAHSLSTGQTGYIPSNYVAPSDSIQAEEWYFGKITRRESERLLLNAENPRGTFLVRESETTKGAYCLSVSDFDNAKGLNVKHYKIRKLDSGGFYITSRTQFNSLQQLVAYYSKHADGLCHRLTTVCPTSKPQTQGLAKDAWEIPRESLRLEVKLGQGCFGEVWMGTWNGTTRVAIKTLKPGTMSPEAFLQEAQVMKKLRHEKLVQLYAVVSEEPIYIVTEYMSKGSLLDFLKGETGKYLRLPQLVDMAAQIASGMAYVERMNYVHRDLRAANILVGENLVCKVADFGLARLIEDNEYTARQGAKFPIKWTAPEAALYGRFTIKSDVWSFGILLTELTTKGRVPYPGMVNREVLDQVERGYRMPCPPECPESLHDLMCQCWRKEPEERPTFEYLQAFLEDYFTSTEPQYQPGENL
Experimental: as §1

22Rv1 = experiment: Cell line inhibition analysis (CCK-8, 72 h); format: cell-based; settings: Homo sapiens; 22Rv1, 72 hours; read-out: Cell growth inhibition GI50 22Rv1
Experimental: (§2) C4-2B and 22Rv1 cells were purchased from ATCC and cultured according to the manufacturer's instructions. The cells were seeded in 96-well plates at 7×10^3cells/100 µl/well and allowed to attach for one day. After removing the culture medium, 90 µl/well of fresh culture medium was added, followed by addition of 10 µl/well of culture medium containing compounds at nine concentrations (0.076-500 µM) serially diluted 3-fold and DMSO control to achieve final concentrations of 0-50 µM, and then cultured for 72 hours in a 37 °C CO2 incubator. Cell proliferation after 72 hours was assessed by adding 10 µl/well of CCK-8 solution, orbital shaking for 30 seconds, then incubating at 37 °C CO2 incubator for 2 hours and measuring absorbance at 450 nm using a microplate reader. The measured absorbance values were corrected by subtracting the absorbance of wells containing only culture medium and CCK-8 solution, and GI50 values were calculated using GraphPad Prism 8 software.
(§3) Meanwhile, in a separate 96-well plate, cells were seeded at 7 × 10^3 cells/100 µl/well, allowed to attach for one day, CCK-8 solution was added, and absorbance was measured to establish the 'Growth (%) = 0' value.

C4-2B = experiment: Cell line inhibition analysis (CCK-8, 72 h); format: cell-based; settings: read-out: Cell growth inhibition GI50 C4-2B
Experimental: as §2, §3

AsPC-1 = experiment: Cell line inhibition analysis (CCK-8, 72 h); format: cell-based; settings: Homo sapiens, ASPC1; read-out: Cell growth inhibition GI50 AsPC-1
Experimental: as §2, §3
(§4) Furthermore, experiments were conducted on A172, A549, HCI-H460, AsPC-1, MIA-Paca-2, DLD-1, HCT-116, HT-29, SW480, SW620, MDA-MB-231, and SKOV3 cell lines using the same method, with results shown in Tables 9 and 10 below [* <1 µM: A, <5 µM: B, <10 µM: C, >10 µM: D].

HCT-116 = experiment: Cell line inhibition analysis (CCK-8, 72 h); format: cell-based; settings: Homo sapiens, read-out: Cell growth inhibition GI50 HCT-116
Experimental: as §2, §3, §4

MDA-MB-231 = experiment: Cell line inhibition analysis (CCK-8, 72 h); format: cell-based; settings: Homo sapiens, read-out: Cell growth inhibition GI50 MDA-MB-231
Experimental: as §2, §3, §4

SW480 = experiment: Cell line inhibition analysis (CCK-8, 72 h); format: cell-based; settings: Homo sapiens, read-out: Cell growth inhibition GI50 SW480
Experimental: as §2, §3, §4

SW620 = experiment: Cell line inhibition analysis (CCK-8, 72 h); format: cell-based; settings: Homo sapiens, SW-620; read-out: Cell growth inhibition GI50 SW620
Experimental: as §2, §3, §4

A172 = experiment: Cell line inhibition analysis (CCK-8, 72 h); format: cell-based; settings: Homo sapiens, A 172; read-out: Cell growth inhibition GI50 A172
Experimental: as §2, §3, §4

A549 = experiment: Cell line inhibition analysis (CCK-8, 72 h); format: cell-based; settings: Homo sapiens, read-out: Cell growth inhibition GI50 A549
Experimental: as §2, §3, §4

DLD-1 = experiment: Cell line inhibition analysis (CCK-8, 72 h); format: cell-based; settings: Homo sapiens, read-out: Cell growth inhibition GI50 DLD-1
Experimental: as §2, §3, §4

HCI-H460 = experiment: Cell line inhibition analysis (CCK-8, 72 h); format: cell-based; settings: read-out: Cell growth inhibition GI50 HCI-H460
Experimental: as §2, §3, §4

HT-29 = experiment: Cell line inhibition analysis (CCK-8, 72 h); format: cell-based; settings: Homo sapiens, read-out: Cell growth inhibition GI50 HT-29
Experimental: as §2, §3, §4

MIA-Paca-2 = experiment: Cell line inhibition analysis (CCK-8, 72 h); format: cell-based; settings: Homo sapiens, read-out: Cell growth inhibition GI50 MIA-Paca-2
Experimental: as §2, §3, §4

SKOV3 = experiment: Cell line inhibition analysis (CCK-8, 72 h); format: cell-based; settings: Homo sapiens, SK-OV-3; read-out: Cell growth inhibition GI50 SKOV3
Experimental: as §2, §3, §4

T1 sequence (Q07912 whole entry): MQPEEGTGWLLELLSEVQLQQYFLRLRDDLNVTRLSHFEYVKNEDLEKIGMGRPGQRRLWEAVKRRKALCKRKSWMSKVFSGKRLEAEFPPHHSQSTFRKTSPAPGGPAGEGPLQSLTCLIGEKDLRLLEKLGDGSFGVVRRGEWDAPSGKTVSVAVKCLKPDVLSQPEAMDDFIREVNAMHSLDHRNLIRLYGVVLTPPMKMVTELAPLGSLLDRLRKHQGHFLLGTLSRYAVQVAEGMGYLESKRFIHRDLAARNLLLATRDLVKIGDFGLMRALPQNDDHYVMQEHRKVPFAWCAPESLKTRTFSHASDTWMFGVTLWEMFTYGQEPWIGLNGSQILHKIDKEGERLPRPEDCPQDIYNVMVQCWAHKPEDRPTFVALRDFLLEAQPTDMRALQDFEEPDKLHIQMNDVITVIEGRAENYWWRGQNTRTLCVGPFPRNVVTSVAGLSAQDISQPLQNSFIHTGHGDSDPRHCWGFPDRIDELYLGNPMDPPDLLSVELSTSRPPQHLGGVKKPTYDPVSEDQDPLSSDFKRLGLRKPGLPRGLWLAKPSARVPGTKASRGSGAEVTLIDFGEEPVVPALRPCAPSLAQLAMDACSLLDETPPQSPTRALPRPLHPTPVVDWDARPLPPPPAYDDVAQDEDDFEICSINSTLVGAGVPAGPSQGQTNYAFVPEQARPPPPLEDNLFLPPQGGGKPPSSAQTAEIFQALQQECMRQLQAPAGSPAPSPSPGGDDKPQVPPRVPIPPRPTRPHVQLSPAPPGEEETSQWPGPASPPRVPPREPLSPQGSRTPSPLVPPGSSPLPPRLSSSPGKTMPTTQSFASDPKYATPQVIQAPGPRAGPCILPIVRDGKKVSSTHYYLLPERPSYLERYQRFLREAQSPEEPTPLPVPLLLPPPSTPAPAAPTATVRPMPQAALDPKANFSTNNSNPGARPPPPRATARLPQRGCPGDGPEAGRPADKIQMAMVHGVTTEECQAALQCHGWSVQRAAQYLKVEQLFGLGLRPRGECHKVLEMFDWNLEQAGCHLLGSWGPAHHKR

| Compound | IC50 (ACK1) | IC50 (BMX) | IC50 (Src) | GI50 (22Rv1) | GI50 (C4-2B) | GI50 (AsPC-1) | GI50 (HCT-116) | GI50 (MDA-MB-231) | GI50 (SW480) | GI50 (SW620) | GI50 (A172) | GI50 (A549) | GI50 (DLD-1) | GI50 (HCI-H460) | GI50 (HT-29) | GI50 (MIA-Paca-2) | GI50 (SKOV3) |
| --- | --- | --- | --- | --- | --- | --- | --- | --- | --- | --- | --- | --- | --- | --- | --- | --- | --- |
| Cc1ccc(NC(=O)c2cccc(C(F)(F)F)c2)cc1N1Cc2cnc(NC3CC3)nc2C2(CC2)C1=O [Compound 3, N-(3-(2'-(cyclopropylamino)-7'-oxo-5'H-spiro[cyclopropane-1,8'-pyrido[4,3-d]pyrimidine]-6'(7'H)-yl)-4-methylphenyl)-3-(trifluoromethyl)benzamide] | 10 to 100 nM | < 10 nM | 10 to 100 nM | > 10000 nM | 1000 to 5000 nM | 1000 to 5000 nM | 1000 to 5000 nM | 1000 to 5000 nM | 1000 to 5000 nM | 1000 to 5000 nM |  |  |  |  |  |  |  |
| Cc1ccc(NC(=O)c2cccc(C(F)(F)F)c2)cc1N1Cc2cnc(Nc3cnn(CC(F)(F)F)c3)nc2C2(CC2)C1=O [Compound 64, N-(4-methyl-3-(7'-oxo-2'-((1-(2,2,2-trifluoroethyl)-1H-pyrazol-4-yl)amino)-5'H-spiro[cyclopropane-1,8'-pyrido[4,3-d]pyrimidine]-6'(7'H)-yl)phenyl)-3-(trifluoromethyl)benzamide] |  |  |  |  |  | < 1000 nM | < 1000 nM | < 1000 nM | < 1000 nM | < 1000 nM |  |  |  |  |  |  |  |
| Cc1ccc(NC(=O)c2cccc(C(F)(F)F)c2)cc1N1Cc2cnc(N)nc2C2(CC2)C1=O [Compound 2, N-(3-(2'-amino-7'-oxo-5'H-spiro[cyclopropane-1,8'-pyrido[4,3-d]pyrimidine]-6'(7'H)-yl)-4-methylphenyl)-3-(trifluoromethyl)benzamide] | 10 to 100 nM | 10 to 100 nM | 10 to 100 nM | 1000 to 5000 nM | 1000 to 5000 nM | < 1000 nM | < 1000 nM | 1000 to 5000 nM | 1000 to 5000 nM | 1000 to 5000 nM | < 1000 nM | > 10000 nM | 1000 to 5000 nM | 1000 to 5000 nM | > 10000 nM | < 1000 nM | 1000 to 5000 nM |
| Cc1ccc(NC(=O)c2cncc(C(F)(F)F)c2)cc1N1Cc2cnc(NCCO)nc2C2(CC2)C1=O [Compound 130, N-(3-(2'-((2-hydroxyethyl)amino)-7'-oxo-5'H-spiro[cyclopropane-1,8'-pyrido[4,3-d]pyrimidine]-6'(7'H)-yl)-4-methylphenyl)-5-(trifluoromethyl)nicotinamide] |  |  |  |  |  |  |  |  |  |  | 1000 to 5000 nM | > 10000 nM |  |  | > 10000 nM |  |  |
| Cc1ccc(NC(=O)c2cc(F)cc(C(F)(F)F)c2)cc1N1Cc2cnc(N)nc2C2(CC2)C1=O [Compound 7, N-(3-(2'-amino-7'-oxo-5'H-spiro[cyclopropane-1,8'-pyrido[4,3-d]pyrimidine]-6'(7'H)-yl)-4-methylphenyl)-3-fluoro-5-(trifluoromethyl)benzamide] | < 10 nM | < 10 nM | < 10 nM | < 1000 nM | < 1000 nM | < 1000 nM | 1000 to 5000 nM | 1000 to 5000 nM | 1000 to 5000 nM | 1000 to 5000 nM |  |  |  |  |  |  |  |
| Cc1ccc(NC(=O)c2cccc(C(F)(F)F)c2)cc1N1Cc2cnc(N[C@@H](C)CO)nc2C2(CC2)C1=O [Compound 127, (S)-N-(3-(2'-((1-hydroxypropan-2-yl)amino)-7'-oxo-5'H-spiro[cyclopropane-1,8'-pyrido[4,3-d]pyrimidine]-6'(7'H)-yl)-4-methylphenyl)-3-(trifluoromethyl)benzamide] |  |  |  |  |  |  |  |  |  |  | < 1000 nM | > 10000 nM |  |  | > 10000 nM |  |  |
| Cc1ccc(NC(=O)c2cncc(C(F)(F)F)c2)cc1N1Cc2cnc(N)nc2C2(CC2)C1=O [Compound 24, N-(3-(2'-amino-7'-oxo-5'H-spiro[cyclopropane-1,8'-pyrido[4,3-d]pyrimidine]-6'(7'H)-yl)-4-methylphenyl)-5-(trifluoromethyl)nicotinamide] | < 10 nM | < 10 nM | < 10 nM | 5000 to 10000 nM | 1000 to 5000 nM | 1000 to 5000 nM | < 1000 nM | 1000 to 5000 nM | 1000 to 5000 nM | < 1000 nM | < 1000 nM | > 10000 nM | 1000 to 5000 nM | 1000 to 5000 nM | > 10000 nM | 1000 to 5000 nM | 1000 to 5000 nM |
